Assay results: patent publication US9290515B2, “Cephem derivative having catechol group” (SHIONOGI & CO., LTD., priority 2011, dated 2016)

Key:
Assay type in all cases: cell-based
P. aeruginosa SR24 = assay: MIC by broth microdilution (CLSI), P. aeruginosa SR24; conditions: Pseudomonas aeruginosa; P. aeruginosa SR24, Ceftazidime-sensitive strain; 10000 cfu/well; cation-adjusted Mueller Hinton broth with 20 μM human apo-transferrin; read-out: minimum growth inhibition concentration (MIC)
Protocol: (§1) Measurement of a minimum growth inhibition concentration (MIC: μg/mL) was performed according to CLSI (Clinical and Laboratory Standards Institute) method, by broth microdilution method, using an inoculation microbe amount of 10000 cfu/well and cation-adjusted Mueller Hinton broth containing human-derived 20 μM apo-transferrin as a test medium.

A. baumannii SR24396 = assay: MIC by broth microdilution (CLSI), A. baumannii SR24396; conditions: Acinetobacter baumannii, 10000 cfu/well, cation-adjusted Mueller Hinton broth with 20 μM human apo-transferrin, read-out: minimum growth inhibition concentration (MIC)
Protocol: as §1

[1] = test system: S. maltophilia SR21970(L-1); assay: MIC by broth microdilution (CLSI), S. maltophilia SR21970; conditions: Stenotrophomonas maltophilia; S. maltophilia SR21970, L-1, MBL producing carbapenem-resistant strain; 10000 cfu/well; cation-adjusted Mueller Hinton broth with 20 μM human apo-transferrin; read-out: minimum growth inhibition concentration (MIC)
Protocol: as §1

[2] = test system: E. coli ATCC BAA-196_TEM-10; assay: MIC by broth microdilution (CLSI), E. coli ATCC BAA-196; conditions: Escherichia coli, ATCCBAA196; E. coli ATCC BAA-196, TEM-10, ESBL producing strain; 10000 cfu/well; cation-adjusted Mueller Hinton broth with 20 μM human apo-transferrin; read-out: minimum growth inhibition concentration (MIC)
Protocol: as §1

[3] = test system: K. pneumoniae ATCC 700603_SHV18; assay: MIC by broth microdilution (CLSI), K. pneumoniae ATCC 700603; conditions: Klebsiella pneumoniae, ATCC700603; K. pneumoniae ATCC 700603, SHV-18, ESBL producing strain; 10000 cfu/well; cation-adjusted Mueller Hinton broth with 20 μM human apo-transferrin; read-out: minimum growth inhibition concentration (MIC)
Protocol: as §1

[4] = test system: P. aeruginosa SR27060(metallo); assay: MIC by broth microdilution (CLSI), P. aeruginosa SR27060; conditions: Pseudomonas aeruginosa; P. aeruginosa SR27060, IMP-1, MBL producing carbapenem-resistant strain; 10000 cfu/well; cation-adjusted Mueller Hinton broth with 20 μM human apo-transferrin; read-out: minimum growth inhibition concentration (MIC)
Protocol: as §1

[5] = test system: P. aeruginosa SR27001(MDRP, IMP-1+); assay: MIC by broth microdilution (CLSI), P. aeruginosa SR27001; conditions: Pseudomonas aeruginosa; P. aeruginosa SR27001, MDRP, IMP-1, MBL producing carbapenem-resistant strain; 10000 cfu/well; cation-adjusted Mueller Hinton broth with 20 μM human apo-transferrin; read-out: minimum growth inhibition concentration (MIC)
Protocol: as §1

SMILES	MIC (P. aeruginosa SR24)	MIC (A. baumannii SR24396)	MIC [1]	MIC [2]	MIC [3]	MIC [4]	MIC [5]
C[N+]1(CC2=C(C(=O)[O-])N3C(=O)[C@@H](NC(=O)/C(=N\O[C@H](C(=O)[O-])c4ccc(O)c(O)c4)c4csc(N)n4)[C@H]3SC2)CCCC1.[Na+] [Comparative Example compound 1, reference compound]	8 µg/mL	4 µg/mL	> 32 µg/mL	16 µg/mL	16 µg/mL	> 32 µg/mL	> 32 µg/mL
Nc1nc(/C(=N/O[C@H](C(=O)[O-])c2ccc(O)c(O)c2)C(=O)N[C@@H]2C(=O)N3C(C(=O)[O-])=C(C[N+]45CCC(CC4)CC5)CS[C@H]23)cs1.[Na+] [Comparative Example compound 2, reference compound]	8 µg/mL	16 µg/mL	> 32 µg/mL	32 µg/mL	16 µg/mL	> 32 µg/mL	> 32 µg/mL
Nc1nc(/C(=N/OC(CNC(=O)c2ccc(O)c(O)c2Cl)C(=O)[O-])C(=O)N[C@@H]2C(=O)N3C(C(=O)[O-])=C(C[N+]45CCC(CC4)CC5)CS[C@H]23)cs1.[Na+] (stereo partly shown) [Compound I-9]	0.125 µg/mL	0.063 µg/mL	1 µg/mL	0.5 µg/mL	0.125 µg/mL	1 µg/mL	2 µg/mL
Nc1nc(/C(=N/OC(CNC(=O)c2ccc(O)c(O)c2Cl)C(=O)[O-])C(=O)N[C@@H]2C(=O)N3C(C(=O)[O-])=C(C[n+]4cccc5c4CCC5)CS[C@H]23)cs1.[Na+] (stereo partly shown) [Compound I-13]	0.125 µg/mL	0.063 µg/mL	> 32 µg/mL	1 µg/mL	0.5 µg/mL	2 µg/mL	2 µg/mL
Nc1nc(/C(=N/OC[C@H](NC(=O)c2ccc(O)c(O)c2Cl)C(=O)[O-])C(=O)N[C@@H]2C(=O)N3C(C(=O)[O-])=C(C[N+]45CCC(CC4)CC5)CS[C@H]23)cs1.[Na+] [Compound I-23]	0.125 µg/mL	0.25 µg/mL	8 µg/mL	1 µg/mL	8 µg/mL	0.5 µg/mL	–
